Laboratory results published in ChEMBL document CHEMBL2424627, “Synthesis of novel bioactive pyrazolothiazoles” (Med Chem Res, 2013).

How the values were obtained:
THP-1 [1] = test: Antiinflammatory activity in LPS-stimulated human THP1 cells assessed as inhibition of IL-6 release at 10 ug/ml after 24 hrs by ELISA relative to control; format: functional; settings: THP-1, 24 h
[2] = Cytotoxicity against human THP1 cells assessed as cell viability at 10 ug/ml after 24 hrs by CCK-8 assay; format: cell-based; settings: THP-1 cells, read-out: Activity
THP-1 [3] = test: Antiinflammatory activity in LPS-stimulated human THP1 cells assessed as inhibition of TNFalpha release at 10 ug/ml after 24 hrs by ELISA relative to control; format: functional; settings: THP-1, 24 h
THP-1 [4] = test: Antiinflammatory activity in LPS-stimulated human THP1 cells assessed as inhibition of IL-6 release at 1 ug/ml after 24 hrs by ELISA relative to control; format: functional; settings: THP-1, 24 h
THP-1 [5] = test: Antiinflammatory activity in LPS-stimulated human THP1 cells assessed as inhibition of TNFalpha release at 1 ug/ml after 24 hrs by ELISA relative to control; format: functional; settings: THP-1, 24 h
[6] = Cytotoxicity against human THP1 cells assessed as cell viability at 1 ug/ml after 24 hrs by CCK-8 assay; settings: THP-1 cells

Compound | inhibition at 10 µg/mL (THP-1 [1]) | viability at 24 h, 10 ug/ml [2] | inhibition at 10 µg/mL (THP-1 [3]) | inhibition at 1 µg/mL (THP-1 [4]) | inhibition at 1 µg/mL (THP-1 [5]) | viability at 24 h, 1 ug/ml [6]
CCOC(=O)c1cn(-c2ccc(Cl)cc2)nc1-c1sc(N(C)c2ccccc2)nc1-c1ccccc1 | 51% | 23% | 11% |  |  | 
CCOC(=O)c1cn(-c2ccc([N+](=O)[O-])cc2[N+](=O)[O-])nc1-c1sc(N(C)c2ccccc2)nc1-c1ccccc1 | 52% | 17% | 5% |  |  | 
CCOC(=O)c1c[nH]nc1-c1sc(N(CC)c2ccccc2)nc1-c1ccccc1 | 56% | 39% | 14% |  |  | 
CCOC(=O)c1cn(-c2ccccc2)nc1-c1sc(N(CC)c2ccccc2)nc1-c1ccccc1 | 47% | 23% | 0% |  |  | 
CCOC(=O)c1cn(-c2ccc(F)cc2)nc1-c1sc(N(CC)c2ccccc2)nc1-c1ccccc1 | 48% | 22% | 0% |  |  | 
CCOC(=O)c1cn(-c2ccc(Cl)cc2)nc1-c1sc(N(CC)c2ccccc2)nc1-c1ccccc1 | 58% | 29% | 2% |  |  | 
CCOC(=O)c1cn(-c2ccc([N+](=O)[O-])cc2[N+](=O)[O-])nc1-c1sc(N(CC)c2ccccc2)nc1-c1ccccc1 | 73% | 35% | 0% |  |  | 
CCOC(=O)c1c[nH]nc1-c1sc(N(Cc2ccccc2)c2ccccc2)nc1-c1ccccc1 | 78% | 23% | 13% |  |  | 
CCOC(=O)c1cn(-c2ccccc2)nc1-c1sc(N(Cc2ccccc2)c2ccccc2)nc1-c1ccccc1 | 53% | 21% | 12% |  |  | 
CCOC(=O)c1cn(-c2ccc(F)cc2)nc1-c1sc(N(Cc2ccccc2)c2ccccc2)nc1-c1ccccc1 | 46% | 10% | 16% |  |  | 
CCOC(=O)c1cn(-c2ccc(Cl)cc2)nc1-c1sc(N(Cc2ccccc2)c2ccccc2)nc1-c1ccccc1 | 20% | 2% | 7% |  |  | 
CCOC(=O)c1c[nH]nc1-c1sc(N(C)c2ccccc2)nc1-c1ccccc1 | 71% | 26% | 5% |  |  | 
CCOC(=O)c1cn(-c2ccccc2)nc1-c1sc(N(C)c2ccccc2)nc1-c1ccccc1 | 52% | 25% | 0% |  |  | 
CCOC(=O)c1cn(-c2ccc(F)cc2)nc1-c1sc(N(C)c2ccccc2)nc1-c1ccccc1 | 61% | 33% | 4% |  |  | 
C[C@@H]1C[C@H]2[C@@H]3CCC4=CC(=O)C=C[C@]4(C)[C@@]3(F)[C@@H](O)C[C@]2(C)[C@@]1(O)C(=O)CO [DEXAMETHASONE] |  |  |  | 85% | 72% | 0%
